target: dipeptidyl peptidase IV (Homo sapiens, UniProt P27487); test: biochemical; conditions: values marked with "*" are ID50 values; read-out: IC50DPIV, values marked with "*" = ID50
Sequence (P27487 whole entry, species assumed): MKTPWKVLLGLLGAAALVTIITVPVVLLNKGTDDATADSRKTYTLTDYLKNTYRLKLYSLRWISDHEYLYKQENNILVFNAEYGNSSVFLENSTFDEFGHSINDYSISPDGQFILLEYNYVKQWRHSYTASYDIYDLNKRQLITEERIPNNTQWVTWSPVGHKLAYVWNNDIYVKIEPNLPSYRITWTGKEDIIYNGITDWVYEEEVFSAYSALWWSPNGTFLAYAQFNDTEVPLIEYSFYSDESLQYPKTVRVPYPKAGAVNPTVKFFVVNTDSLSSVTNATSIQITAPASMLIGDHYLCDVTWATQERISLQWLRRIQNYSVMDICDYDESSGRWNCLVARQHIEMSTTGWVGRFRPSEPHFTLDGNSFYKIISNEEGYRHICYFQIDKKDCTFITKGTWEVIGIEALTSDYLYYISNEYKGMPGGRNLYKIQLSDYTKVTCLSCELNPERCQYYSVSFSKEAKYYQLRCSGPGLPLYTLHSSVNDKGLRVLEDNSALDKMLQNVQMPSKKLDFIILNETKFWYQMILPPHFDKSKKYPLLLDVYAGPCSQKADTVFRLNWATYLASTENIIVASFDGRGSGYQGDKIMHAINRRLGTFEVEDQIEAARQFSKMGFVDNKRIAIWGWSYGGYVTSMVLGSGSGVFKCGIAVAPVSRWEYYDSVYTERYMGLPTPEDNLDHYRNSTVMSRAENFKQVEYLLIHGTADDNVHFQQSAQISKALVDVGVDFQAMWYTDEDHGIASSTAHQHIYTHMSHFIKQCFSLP

Compound | IC50 [µM]
O=C(Nc1ccccc1CC(=O)N1CCCNCC1)c1cccnc1Sc1ccccc1 [D1.002] | 1.4
CCn1c2ccccc2c2ccc(/C=N/NC(=O)c3ccc([N+](=O)[O-])cc3)cc21 [D7.001] | 165
N/C(=N/[N+](=O)[O-])N/N=C/c1ccc(-c2cccc(Cl)c2Cl)o1 [D10.142] | 609
COc1ccc(/C=C(\NC(=O)c2ccccc2)C(=O)N/N=C/c2ccc(OC)c(COc3ccc(C(=O)OCC(C)C)cc3)c2)cc1 [D10.117] | 166
Cc1ccccc1NC(=O)c1cc2c3c(c1)C1C=CCC1CN3CC1CC=CC21 (centres unmarked) [D3.110] | 279
COc1ccc(OCC(=O)N/N=C/c2ccc(OC)c(Br)c2)c(Br)c1 [D10.120] | 197
CN(C)c1ccc(C2C3C(=O)N(c4ccccc4)C(=O)C3ON2c2ccc(Cl)cc2)cc1 (centres unmarked) [D13.007] | 344
CC(C)(C)c1cc2oc3c(c2c(/C=N/NC(=O)c2ccc(O)cc2O)c1O)CCCC3 [D10.097] | 74.7
CSc1ccc(/C=N/NC(=O)c2cccs2)cc1 [D10.141] | 498
COc1ccc(NC(=O)CSc2nnc3n2-c2sc4c(c2C(=O)C3CCc2ccccc2)CC(C)(C)OC4)cc1 (centres unmarked) [D3.111] | 284
O=C(N/N=C/c1cc(Br)ccc1OC(=O)c1ccc([N+](=O)[O-])cc1)/C(=C\c1ccc2c(c1)OCO2)NC(=O)c1ccccc1 [D10.133] | 272
CCOc1cc(/C=N/NC(=O)c2nnn(-c3nonc3N)c2-c2ccccc2)ccc1OC [D10.132] | 271
CCN(CC)c1ccc(/C=C(/NC(=O)c2ccccc2)C(=O)N/N=C/c2ccc(-c3ccc([N+](=O)[O-])cc3)o2)cc1 [D10.138] | 418
O=C(Oc1cccc(-n2cnnn2)c1)C1CC1 [D4.089] | 98.4
Cc1ccc(N2C(=O)C3CC(c4ccccc4)=C4C5C=CC(C6C(=O)N(c7ccc(C)cc7C)C(=O)C56)C4C3C2=O)c(C)c1 (centres unmarked) [D3.119] | 527
COc1ccc(-n2c(=O)c3c4c(sc3n3c(SCc5ccc(Br)cc5)nnc23)COC(C)(C)C4)cc1 [D3.113] | 317
CCC(=O)Oc1cccc(N2C(=O)C3C4C=CC(C3C2=O)C2C(=O)N(c3cccc(OC(=O)CC)c3)C(=O)C42)c1 (centres unmarked) [D3.045] | 4.2
C/C(=N\NC(=O)c1cc(-c2ccc(CC(C)C)cc2)n[nH]1)c1ccc2ccccc2c1 [D10.007] | 7.2
COc1cc(/C=N/NC(=O)c2ccccc2[N+](=O)[O-])cc(OC)c1OC [D10.128] | 241
Cc1ccc(-n2c(SCC(=O)c3ccccc3)nc3sc4c(c3c2=O)CC(C(C)C)OC4)cc1 (centres unmarked) [D3.102] | 209
O=C(NNC(=O)c1ccc([N+](=O)[O-])cc1)c1ccc(N2C(=O)c3ccc(C(=O)NNC(=O)c4ccc([N+](=O)[O-])cc4)cc3C2=O)cc1 [D10.137] | 402
CCOC(=O)n1ccc(C(=O)Nc2cc(C)ccn2)n1 [D6.112] | 148

same assay, conditions: values without "*" = IC-50; read-out: IC50DPIV

Compound | IC50 [µM]
O=C1c2ccccc2-c2c1[n+]([O-])c1c([n+]2[O-])CCCC1 [D3.017] | 14
Cc1cc2ccccc2n1CCNC(=O)c1cccs1 [D6.044] | 28.8
CCOC(=O)c1c(C)nn(-c2ccc(N3C(=O)CSCC3=O)cc2)c1C [D4.049] | 37.4
N#Cc1ccc(/C=N/NC(=O)c2ccccc2[N+](=O)[O-])cc1 [D10.091] | 62.2
CCC(N)C(=O)c1cccs1 (centres unmarked) [D6.085] | 61.4
COc1ccc(C(=O)N/N=C/c2cc(O)c(O)c(Br)c2Br)cc1 [D10.086] | 57.8
O=C(COc1ccc2ccccc2c1)N/N=C/c1c(Br)cc(Br)c(O)c1Br [D10.095] | 69.6
O=C1c2ccc(-c3nc4ccccc4c(=O)o3)cc2C(=O)N1c1ccc(Cc2ccc(N3C(=O)c4ccc(-c5nc6ccccc6c(=O)o5)cc4C3=O)cc2)cc1 [D4.037] | 27.7
O=C(NCc1ccco1)C(=O)Nc1ccc(Br)cc1 [D6.021] | 16.1
CCOC(=O)c1c(C)oc2c1c1c(c3ccccc32)OCN(C2CCS(=O)(=O)C2)C1 (centres unmarked) [D4.045] | 34.2
Cc1cccc(C2N(CC(C)C)CC(C(=O)c3c(C)cccc3C)N2CCCN2CCCC2=O)c1 (centres unmarked) [D4.010] | 7.5
Cc1nnc(SCC(=O)OCN2C(=O)c3ccccc3C2=O)[nH]1 [D3.033] | 27.5
Cc1ccc(C(=O)N/C(=C\c2ccco2)C(=O)N2CCOCC2)cc1C [D5.033] | 46.5
Nc1nonc1-n1nnc(C(=O)NN=C2c3ccccc3-c3ccccc32)c1-c1ccccc1 [D4.013] | 10.1
COc1ccc(N2CCN(c3nc4c(c(=O)[nH]c(=O)n4C)n3Cc3ccccc3)CC2)cc1 [D4.024] | 19.2
CCCn1c(N2CCN(CC(=O)c3c(C)n(C)c4ccccc34)CC2)nc2c1c(=O)[nH]c(=O)n2C [D4.019] | 15.2
CCCc1cccc(/C=N/NC(=O)c2cc(-c3ccc(F)cc3)n[nH]2)c1O [D6.079] | 55.3
CCOC(=O)C(NC(=O)c1ccccc1)(N1CCOCC1)C(F)(F)F (centres unmarked) [D5.041] | 61.9
O=C(N/N=C/c1cc([N+](=O)[O-])cc([N+](=O)[O-])c1O)/C(=C/c1ccc([N+](=O)[O-])cc1)NC(=O)c1ccccc1 [D10.069] | 45.7
CCCOC(=O)c1cc(-c2ccc(/C=C3\C(=O)NC(=O)C(C#N)=C3C)o2)ccc1Cl [D12.034] | 65.3

Compound | IC50 [µM]
O=C(Nc1c[nH]c(=O)[nH]c1=O)c1ccc2c(c1)C(=O)N(c1ccc(C(=O)c3ccccc3)cc1)C2=O [D3.048] | 38.2
CCOc1cc(/C=N/NC(=O)c2cc(-c3ccco3)n[nH]2)ccc1O [D10.099] | 84.9
Cc1cc(-c2ccc(/C=C(\C#N)c3nc4ccccc4[nH]3)o2)ccc1[N+](=O)[O-] [D3.096] | 138
COC(=O)C1=C2SCC(=O)N2C(N)=C(C#N)C1 [D3.052] | 40.5
O=C(N/N=C/c1ccc(OC(=O)c2ccco2)c([N+](=O)[O-])c1)/C(=C\c1cccs1)NC(=O)c1ccccc1 [D10.028] | 16.7
O=C1CCCC(=O)N1c1ccc(NCCc2ccc(O)cc2)c([N+](=O)[O-])c1 [D5.037] | 54.8
COCC(=O)CC(N)c1ccc(C)cc1 (centres unmarked) [D13.002] | 23.3
CCOc1cc(/C=N/NC(=O)c2cc(C3CC3)[nH]n2)ccc1O [D10.039] | 20.8
Cc1ccc(S(=O)(=O)CNC(=S)c2ccc3ccccc3c2)cc1 [D3.019] | 14.5
N#CC1=C(N)C(C#N)(C#N)C(c2ccccc2)C2CNCC=C12 (centres unmarked) [D3.035] | 52.3
O=C(N/N=C/c1ccc([N+](=O)[O-])o1)c1ccccc1I [D10.040] | 20.9
O=C(N/N=C/c1cc([N+](=O)[O-])ccc1O)c1cccc2cc[nH]c12 [D10.009] | 8.1
COc1ccc(C2(N3CCCC3)Oc3ccccc3C(C#Cc3ccccc3)=C2C)cc1 (centres unmarked) [D4.071] | 60.7
Cc1cccc(-n2c(=O)c3c4c(sc3n3c(SC(C)C(=O)N5CCOCC5)nnc23)COC(C(C)C)C4)c1 (centres unmarked) [D3.012] | 10.1
CC1CCN(C(=O)/C(=C\c2ccco2)NC(=O)c2ccc(Cl)cc2)CC1 [D12.004] | 18.5
COc1cc(C)ccc1N(CCCN1C(=O)c2cccc3cccc(c23)C1=O)C(=O)c1cc(C)cc(C)c1 [D3.073] | 55.4
CN(C)CCNc1nc2c(c(=O)n(C)c(=O)n2C)n1Cc1ccccc1Cl [D3.004] | 7.5
Cn1cnnc1SCC(=O)OCN1C(=O)c2ccccc2C1=O [D3.083] | 62.4
O=C1CCCC(=O)N1c1ccc(NCCOCCO)c([N+](=O)[O-])c1 [D4.065] | 55
CC(C)C1=CC23CCC4C(C)(C(=O)O)CCCC4(C)C2CC1C1C(=O)N(c2cccc(O)c2)C(=O)C13 (centres unmarked) [D3.074] | 55.4

Reference: patent publication US20070037785A1, “Novel dipeptidyl peptidase IV inhibitors used for functionally influencing different cells and treating immunological, infammatory, neuronal, and other diseases” (priority 2003, published 2007)
